≈ marks a conversion by molar mass, not a printed value. Starred links: 1 amine or outer side, 2 acyl side, 3 side chain; linkers in the order of their positions; H or OH if unused. Positions of bridges follow the written chain, without caps; N, C: chain ends. Residues, ends and D or L forms follow the SMILES beside them. 2,2'Bipyridine(5,5'-diCH2) = c1cc(-c2ccc(C[*:2])cn2)ncc1C[*:1]; pXylylene = c1cc(C[*:2])ccc1C[*:1]; X1 = C(=CC[*:2])C[*:1]
Tests used:
[1] = 90 minute cytotoxicity assay (LDH release), renal toxicity; assay type: cell-based; settings: 90 minutes of incubation, LDH release; read-out: Inhibitory Concentration at 50% Cytotoxicity (IC50) Human Renal Proximal Tubule Epithelial Cells (RPTEC)
Method in brief: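 Released lactate dehydrogenase, read as absorbance at 490 nm after 10 min with assay reagent, serves as read-out. Renal proximal tubule epithelial cells received peptide serial dilutions or vehicle for 90 min at 37° C after overnight plating.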

[2] = tested on: Escherichia coli (E. coli); assay type: cell-based; settings: microbroth dilution, 20-24 hours at 37° C.
Method in brief: (§1)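 Visual growth read-out after 20-24 h at 37 °C defines the MIC. Inoculum: 5×10^5 CFU/ml of regrown (3-4 h) bacteria in MHB or MHB II, against serial peptide dilutions, following an adapted CLSI protocol.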

[3] = tested on: Pseudomonas aeruginosa (P. aeruginosa); assay type: cell-based; settings: microbroth dilution, 20-24 hours at 37° C.
Method in brief: as §1

[4] = tested on: Klebsiella pneumoniae (K. pneumoniae); assay type: cell-based; settings: microbroth dilution, 20-24 hours at 37° C.
Method in brief: as §1

[5] = tested on: Staphylococcus aureus (S. aureus); assay type: cell-based; settings: microbroth dilution, 20-24 hours at 37° C.
Method in brief: as §1

[6] = tested on: Acinetobacter baumannii (A. baumannii); assay type: cell-based; settings: microbroth dilution, 20-24 hours at 37° C.
Method in brief: as §1

[7] = 48 hours cytotoxicity assay (CellTiter-Glo), liver toxicity; assay type: cell-based, human; settings: 48 hours of incubation, CellTiter-Glo; read-out: Inhibitory Concentration at 50% Cytotoxicity (IC50) Human Liver Cells (HepG2)
Method in brief: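 Viability from CellTiter-Glo luminescence after StAMP dilution series or vehicle acted on HepG2 cells for 48 h at 37 °C. Cells were grown in EMEM plus 10% FBS and given 4 h to attach before dosing.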

Compound | IC50 [1] [µg/mL] | Minimum Inhibitory Concentration (MIC) E. coli [2] [µg/mL] | Minimum Inhibitory Concentration (MIC) P. aeruginosa [3] [µg/mL] | Minimum Inhibitory Concentration (MIC) K. pneumoniae [4] [µg/mL] | Minimum Inhibitory Concentration (MIC) S. aureus [5] [µg/mL] | Minimum Inhibitory Concentration (MIC) A. baumannii [6] [µg/mL] | IC50 [7] [µg/mL]
CC[C@H](C)[C@H](NC(=O)CN)C(=O)N[C@@H](Cc1ccccc1)C(=O)N[C@@H](CO)C(=O)N[C@@H](CCCCN)C(=O)N[C@@H](CC(C)C)C(=O)N[C@@H](C)C(=O)N[C@H]1CSCc2ccc(cc2)CSC[C@@H](C(=O)N[C@@H](CC(N)=O)C(=O)N[C@@H](CC(C)C)C(=O)N[C@@H](CC(C)C)C(=O)N[C@H](C(=O)N[C@@H](CO)C(=O)NCC(=O)N[C@@H](CC(C)C)C(=O)N[C@@H](CCCCN)C(=O)NCC(N)=O)[C@@H](C)CC)NC(=O)[C@H]([C@@H](C)CC)NC(=O)[C@H](CCCCN)NC(=O)[C@H](CCCCN)NC1=O [compound 11] (H-GIFSKLACKKICNLLISGLKG-NH2; linker 8-12 via pXylylene) | 16 (≈ 6.93 µM) | 4 | 8 | 8 | 32 | 4 | 23 (≈ 9.97 µM)
CC[C@H](C)[C@H](NC(=O)CN)C(=O)N[C@@H](Cc1ccccc1)C(=O)N[C@@H](CO)C(=O)N[C@@H](CCCCN)C(=O)N[C@@H](CC(C)C)C(=O)N[C@H]1CSCc2ccc(nc2)-c2ccc(cn2)CSC[C@@H](C(=O)N[C@@H](CC(C)C)C(=O)N[C@H](C(=O)N[C@@H](CO)C(=O)NCC(=O)N[C@@H](CC(C)C)C(=O)N[C@@H](CCCCN)C(=O)NCC(N)=O)[C@@H](C)CC)NC(=O)[C@H](CC(N)=O)NC(=O)[C@H](CCCCN)NC(=O)[C@H]([C@@H](C)CC)NC(=O)[C@H](CCCCN)NC(=O)[C@H](CCCCN)NC(=O)CNC1=O [compound 89] (H-GIFSKLCGKKIKNCLISGLKG-NH2; linker 7-14 via 2,2'Bipyridine(5,5'-diCH2)) | 80 (≈ 33.5 µM) | 4 | 32 | 16 | >64 | 4 | 62 (≈ 26 µM)
CC[C@H](C)[C@H](NC(=O)[C@H](CC(C)C)NC(=O)[C@H](CC(C)C)NC(=O)[C@H](CC(N)=O)NC(=O)[C@H](CCCCN)NC(=O)[C@@H](NC(=O)[C@H](CCCCN)NC(=O)[C@H](CCCCN)NC(=O)[C@@H]1CSCc2ccc(nc2)-c2ccc(cn2)CSC[C@H](N)C(=O)N[C@@H]([C@@H](C)CC)C(=O)N[C@@H](Cc2ccccc2)C(=O)N[C@@H](CO)C(=O)N[C@@H](CCCCN)C(=O)N[C@@H](CC(C)C)C(=O)N[C@@H](C)C(=O)N1)[C@@H](C)CC)C(=O)N[C@@H](CO)C(=O)NCC(=O)N[C@@H](CC(C)C)C(=O)N[C@@H](CCCCN)C(=O)NCC(N)=O [compound 49] (H-CIFSKLACKKIKNLLISGLKG-NH2; linker 1-8 via 2,2'Bipyridine(5,5'-diCH2); N-terminus assumed) | 60 (≈ 24.4 µM) | 32 | >64 | >64 | >64 | 32 | 22 (≈ 8.95 µM)
CC[C@H](C)[C@H](NC(=O)CN)C(=O)N[C@@H](Cc1ccccc1)C(=O)N[C@@H](CO)C(=O)N[C@@H](CCCCN)C(=O)N[C@@H](CC(C)C)C(=O)N[C@@H](C)C(=O)NCC(=O)N[C@@H](CCCCN)C(=O)N[C@@H](CCCCN)C(=O)N[C@H](C(=O)N[C@@H](CCCCN)C(=O)N[C@@H](CC(N)=O)C(=O)N[C@@H](CC(C)C)C(=O)N[C@H]1CSCC=CCSC[C@@H](C(=O)N[C@@H](CCCCN)C(=O)NCC(N)=O)NC(=O)CNC(=O)[C@H](CO)NC(=O)[C@H]([C@@H](C)CC)NC1=O)[C@@H](C)CC [compound 31] (H-GIFSKLAGKKIKNLCISGCKG-NH2; linker 15-19 via X1) | > 200 | >64 | >64 | >64 | >64 | >64 | > 200

— patent US20240391965A1, “STAPLED ANTIMICROBIAL PEPTIDES (STAMPS) AND USES THEREOF” (Lytica Therapeutics, Inc., priority 2021, published 2024)
